Measurements reported in patent publication US9814697B2, “Composition for nonalcoholic fatty liver disease (NAFLD)” (Cadila Healthcare Limited, priority 2013, dated 2017).

Experiments:
[1] = test system: subjects with biopsy proven NASH; assay: Prospective, multi-centric, open-label, single arm study in Non-alcoholic steatohepatitis: safety and tolerability; format: in vivo, human
Procedure: (§1) Title of the Study—“A prospective, multi-centric, open-label, single arm study to evaluate the safety and efficacy of 4 mg of magnesium salt of compound of formula (I) wherein R is -SMe in a pharmaceutical composition as described above in Non-alcoholic steatohepatitis.”
(§2) To evaluate the safety and efficacy of 4 mg of magnesium salt of compound of formula (I) wherein R is -SMe in Non-alcoholic steatohepatitis (NASH).
(§3) • Primary Efficacy (Time Frame 6 and 12 Weeks): • 1. Change in alanine aminotransferase (ALT) from baseline • Secondary Efficacy (Time Frame 6 and 12 Weeks): • Sustained reduction in ALT level. • C-peptide test for homeostasis model assessment (HOMA) beta and HOMA IR • Triglyceride (TG) Criteria for Safety: • 1. General and Systemic Clinical Examination: Cardiovascular system (CVS), respiratory system (RS), gastro-intestinal system (GIS), central nervous system (CNS) etc. • 2. Laboratory Investigations: Complete blood count (CBC), aspartate aminotransferase(AST), ALT, alkaline phosphatase (ALP), serum bilirubin, γ-glutamyl transpeptidase (GGT), Serum proteins, blood urea nitrogen (BUN), Serum creatinine, creatinine phosphokinase (CPK), fasting plasma glucose (FPG). • 3. Frequency and severity of adverse events (AEs) for all subjects enrolled were recorded. All AEs, were classified using • causality • severity • seriousness Methodology:
(§4) It is an interventional, single arm, safety and efficacy study to explore effect of magnesium salt of compound of formula (I) wherein R is -SMe suitably formulated as described above, on NASH.
(§5) All subjects were given suitable formulation of magnesium salt of compound of formula (I) wherein R is -SMe 4 mg for 12 weeks. Lifestyle modification was continued as before the study. Patient was monitored for safety and efficacy of magnesium salt of compound of formula (I) wherein R is -SMe.
(§6) After Clinical evaluations, all baseline safety and efficacy parameters were recorded as per Table (I) given below. All laboratory investigations were carried out after overnight fasting.
Subjects were clinically examined and given the study medications for four weeks and also safety parameters were assessed as per Table (I)given below.
(§7) Safety and efficacy parameters were assessed as per Table (I) given below.
Subjects were clinically examined and safety and efficacy parameters were assessed as per Table (I) given below.
If further investigations are required in case of any AE, investigator will be advised to assess the AE and take necessary action, if required. Subjects will be advised to contact the investigator for any complaints within next two weeks. […]

[2] = test system: subjects with biopsy proven NASH; assay: Prospective, multi-centric, open-label, single arm study in Non-alcoholic steatohepatitis: efficacy parameters; format: in vivo, human
Procedure: as §1, §2, §3, §4
Subjects was diagnosed by biopsy as suffering from NASH in last one year and willing to participate in study were invited for screening programme for inclusion in the study.
as §5, §6, §7
Subjects were clinically examined and safety and efficacy parameters were assessed as per Table (I) given below. […]

[3] = 4 mg, during the study, mild, none considered clinically significant by the investigator
[4] = 4 mg, Safety Population, at Week 3 and at Week 4 (so in the source), FIG. 2
[5] = 4 mg, at 6 and 12 weeks, PP analysis, FIG. 3

SMILES: CCO[C@@H](Cc1ccc(OCCn2c(C)ccc2-c2ccc(SC)cc2)cc1)C(=O)[O-].CCO[C@@H](Cc1ccc(OCCn2c(C)ccc2-c2ccc(SC)cc2)cc1)C(=O)[O-].[Mg+2]
- Overall safety and tolerability ([1]; 4 mg for 12 weeks, NASH patients): safe and well tolerated
- Changes from baseline in various laboratory parameters ([1]; 4 mg treatment arm): no persistent changes from baseline
- Deaths or SAEs reported ([1]; 4 mg treatment arm): no deaths or SAEs
- Overall incidence of AEs ([1]; 4 mg treatment arm): Nil
- Change in weight compared to baseline ([1]; 4 mg, NASH patients, visit 2, 3 and 4): no significant change in weight
- Events of raised CPK value [1, 3]: five
- Events of raised creatinine [1, 3]: Few events
- Change in ALT levels from baseline ([2]; 4 mg for 12 weeks, NASH patients, PP population, visit 3 (week 6) and visit 4 (week 12), FIG. 1): statistically significant reduction
- Patients with sustained reduction in ALT levels ([2]; 4 mg, PP population, visit 3 (week 6)): 63.16 % of patients
- Patients with sustained reduction in ALT levels ([2]; 4 mg, PP population, visit 4 (week 12)): 78.95 % of patients
- Change in Aspartate Transaminase [2, 4]: statistical significant decrease
- Change in alkaline phosphatase [2, 4]: statistical significant decrease
- Change in gamma-glutamyl transpeptidase [2, 4]: statistical significant decrease
- Change in C peptide levels [2, 5]: non-significant change
- Change in HOMA-Beta cell function [2, 5]: non-statistically significant reduction
- Change in HOMA-Insulin Resistance [2, 5]: non-statistically significant reduction
- Decrease in triglyceride as compared to baseline ([2]; 4 mg, patients with baseline TG<150 mg/dl, week 12, PP population, FIG. 4): not statistically significant
- Decrease in serum triglycerides as compared to baseline ([2]; 4 mg, patients with baseline TG≧150 mg/dl, week 6 and 12, PP population, FIG. 4): not statistically significant
